Results as given in US10640499B2 (Gilead Sciences, Inc., priority 2016, dated 2020).

Columns and labels:
Assay type in all cases: cell-based
[1] = test system: TNFα; experiment: Cytokine profiling assay in human PBMCs, TNFα detection (MSD); settings: PBMC; cryopreserved human PBMCs, 24 hours at 37° C.; concentration at half-maximal effect, normalized percent activation; read-out: TNFa AC50
Description: (§1) Cryopreserved human PBMCs isolated from healthy donors were purchased from StemCell Technologies (Vancouver, Canada). Cell culture medium used was RPMI with L-Glutamine (Mediatech, Manassas, Va.) supplemented with 10% fetal bovine serum (Hyclone, GE Healthcare, Logan, Utah) and Penicillin-Streptomycin (Mediatech). Human TNFα, IL12p40, and IFNα2a 384-well Assay capture plates, standards, buffers and processing reagents were obtained from MesoScale Discovery Technologies (MSD; Rockville, Md.).
(§2) Cryopreserved human PBMCs (1×10e8 cells/ml) were thawed at 37° C. and resuspended in 25 mL warm cell culture medium. The cells were pelleted at 200×g (Beckman Avanti J-E) for 5 min and resuspended in 20 mL of fresh culture media. Cells were counted using a Cellometer (Nexcelcom Bioscience), adjusted to 2×10e6 cells, and incubated for 2 hours in an incubator set at 37° C., 5% CO2 to recover from cryopreservation. Compounds were serially diluted in DMSO at half-log steps to generate a 10-point dose range. Using a Bravo pipette equipped with a 384 well head (Agilent), 0.4 μL of compound was transferred to each well of a 384 well black, clear bottom plate (Greiner Bio-One, Germany) containing 30 μL of cell culture medium. Recovered PBMCs were then dispensed into the assay plate at 50 μL per well (100 k cells/well) using the MicroFlow multichannel dispenser (Biotek). Final DMSO concentration was 0.5%. DMSO was used as the negative control. The plates were incubated for 24 hours at 37° C. PBMCs in the assay plate were pelleted by centrifugation (Beckman Avanti J-E) at 200×g for 5 min.
(§3) Using a Biomek FX 384 well pipetting station (Beckman), conditioned culture medium (CCM) from the assay plate was transferred to MSD capture plates customized for each cytokine. For IFNα and IL12-p40 detection, 25 μL and 20 μL of CCM were added directly to each capture plate, respectively. For TNFα detection, CCM was diluted 1:9 in fresh culture medium, and 20 μL of diluted CCM was used. Serially diluted calibration standards for each cytokine were used to generate standard curves and establish assay linearity. The plates were sealed and incubated overnight at 4° C. in a plate shaker (Titer Plate) set at 200 rpm. On the following day, antibodies specific for each cytokine were diluted 1:50 in MSD Diluent 100 antibody dilution buffer. Diluted antibodies were added to corresponding capture plates at 10 μL/well, and incubated at RT for 1-2 hrs in the shaker. The plates were washed with PBST buffer (3×, 60 μl/well) using a Biotek Multiflow plate washer. MSD Read Buffer diluted to 2× in deionized water and 35 μL/well was added via Biomek FX instrument. The plates were read immediately in a MSD6000 reader. Data were normalized to positive and negative controls in each assay plate. AC50 values represent compound concentrations at half-maximal effect based on normalized percent activation and calculated by non-linear regression using Pipeline Pilot software (Accelrys, San Diego, Calif.).

[2] = test system: IL12p40; experiment: Cytokine profiling assay in human PBMCs, IL12-p40 detection (MSD); settings: PBMC; cryopreserved human PBMCs, 24 hours at 37° C.; concentration at half-maximal effect, normalized percent activation
Description: as §1, §2, §3

[3] = test system: IFNα; experiment: Cytokine profiling assay in human PBMCs, IFNα detection (MSD); settings: PBMC; cryopreserved human PBMCs, 24 hours at 37° C.; concentration at half-maximal effect, normalized percent activation; read-out: IFNa AC50
Description: as §1, §2, §3

Row | SMILES | AC50 [1] | AC50 [2] | AC50 [3]
1 | CCCC[C@](C)(CNC(C)=O)Nc1nc(N)nc2cc(CC)cnc12 [Compound 1, (R)—N-(2-((2-amino-7-ethylpyrido[3,2-d]pyrimidin-4-yl)amino)-2-methylhexyl)acetamide] | 0.0853 µM | 0.0604 µM | 44.6 µM
2 | CCCC[C@](C)(CNC(C)=O)Nc1nc(N)nc2cc(C(C)C)cnc12 [Compound 2, (R)—N-(2-((2-amino-7-isopropylpyrido[3,2-d]pyrimidin-4-yl)amino)-2-methylhexyl)acetamide] | 0.262 µM | 0.209 µM | 35 µM
3 | CCCC[C@](C)(CNC(C)=O)Nc1nc(N)nc2cc(OC)cnc12 [Compound 4, (R)—N-(2-((2-amino-7-methoxypyrido[3,2-d]pyrimidin-4-yl)amino)-2-methylhexyl)acetamide] | 0.122 µM | 0.12 µM | > 50 µM
4 | CCCC[C@](C)(CNC(C)=O)Nc1nc(N)nc2cc(OCC)cnc12 [Compound 5, (R)—N-(2-((2-amino-7-ethoxypyrido[3,2-d]pyrimidin-4-yl)amino)-2-methylhexyl)acetamide] | 0.0812 µM | 0.0484 µM | > 50 µM
5 | CCC[C@](C)(CNC(C)=O)Nc1nc(N)nc2cccnc12 [Compound 6, (R)—N-(2-((2-aminopyrido[3,2-d]pyrimidin-4-yl)amino)-2-methylpentyl)acetamide] | 1.46 µM | 1.24 µM | > 50 µM
6 | CCCCCC[C@](C)(CNC(C)=O)Nc1nc(N)nc2cccnc12 [Compound 7] | 4.19 µM | 2.67 µM | > 50 µM
7 | CCCC[C@H](CNC(C)=O)Nc1nc(N)nc2cc(F)cnc12 [Compound 8, (R)—N-(2-((2-amino-7-fluoropyrido[3,2-d]pyrimidin-4-yl)amino)hexyl)acetamide] | 1.88 µM | 1.48 µM | > 50 µM
